PMC12869243, “Urate-lowering effect of delphinidin-3-glucoside in red kidney beans via binding to the FAD site of the XO enzyme” (Journal of Advanced Research, 2025)

Experiments:
xanthine oxidase (XO) [1] = biological target: T1, xanthine oxidase (XO) (Bos taurus, UniProt P80457)
T1 construct: gene XDH

xanthine oxidase (XO) [2] = biological target: T1, xanthine oxidase (XO); assay: SPR (Biacore T200, CM5 chip, immobilised XO, steady-state analysis); also lowers uric acid production by purified XO (UHPLC-MS); type: binding

T1 sequence (P80457 2-1332): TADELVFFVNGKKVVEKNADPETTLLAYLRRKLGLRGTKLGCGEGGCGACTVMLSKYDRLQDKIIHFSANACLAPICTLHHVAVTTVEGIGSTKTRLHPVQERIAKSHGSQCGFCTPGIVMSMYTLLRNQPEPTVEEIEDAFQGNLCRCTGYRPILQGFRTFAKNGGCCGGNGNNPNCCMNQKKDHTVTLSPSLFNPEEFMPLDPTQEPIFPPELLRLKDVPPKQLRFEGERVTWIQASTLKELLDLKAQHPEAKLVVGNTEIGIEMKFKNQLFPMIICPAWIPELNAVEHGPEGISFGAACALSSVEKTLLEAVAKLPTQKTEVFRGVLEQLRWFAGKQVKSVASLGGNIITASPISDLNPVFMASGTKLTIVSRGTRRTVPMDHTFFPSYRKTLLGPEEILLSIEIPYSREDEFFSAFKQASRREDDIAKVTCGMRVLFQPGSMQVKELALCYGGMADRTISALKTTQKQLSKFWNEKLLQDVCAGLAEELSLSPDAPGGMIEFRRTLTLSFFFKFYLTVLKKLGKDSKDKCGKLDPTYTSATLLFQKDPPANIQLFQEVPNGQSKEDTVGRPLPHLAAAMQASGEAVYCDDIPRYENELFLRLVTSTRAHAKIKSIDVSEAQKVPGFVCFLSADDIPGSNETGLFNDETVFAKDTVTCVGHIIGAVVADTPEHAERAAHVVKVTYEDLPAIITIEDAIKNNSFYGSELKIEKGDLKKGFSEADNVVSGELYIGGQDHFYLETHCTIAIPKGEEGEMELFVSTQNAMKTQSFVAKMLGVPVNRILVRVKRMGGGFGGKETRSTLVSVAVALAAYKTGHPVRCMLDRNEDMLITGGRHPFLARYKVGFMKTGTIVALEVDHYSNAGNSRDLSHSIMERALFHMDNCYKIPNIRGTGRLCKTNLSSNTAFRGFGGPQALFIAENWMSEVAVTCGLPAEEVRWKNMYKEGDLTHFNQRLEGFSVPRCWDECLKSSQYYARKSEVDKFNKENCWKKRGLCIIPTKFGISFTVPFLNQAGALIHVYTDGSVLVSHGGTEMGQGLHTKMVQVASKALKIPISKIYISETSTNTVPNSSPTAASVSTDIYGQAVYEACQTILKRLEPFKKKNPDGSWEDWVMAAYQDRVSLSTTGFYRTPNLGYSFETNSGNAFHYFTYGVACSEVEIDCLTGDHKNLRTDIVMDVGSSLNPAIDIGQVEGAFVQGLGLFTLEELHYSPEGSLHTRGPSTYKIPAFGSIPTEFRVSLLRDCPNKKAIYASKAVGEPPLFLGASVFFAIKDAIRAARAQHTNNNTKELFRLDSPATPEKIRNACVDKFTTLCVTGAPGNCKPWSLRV

| Kd (xanthine oxidase (XO) [2]) [nM] | Structure (SMILES) | XO reaction-UHPLC/MS assay of uric acid production from xanthine, AP at 100 μM a (xanthine oxidase (XO) [1]) |
| --- | --- | --- |
| – | Oc1ncnc2[nH]ncc12 [AP, allopurinol] | We observed a significant reduction in uric acid levels in the AP treated group, a potent purine-like XOI |
| 250 | OC[C@H]1O[C@@H](Oc2cc3c(O)cc(O)cc3[o+]c2-c2cc(O)c(O)c(O)c2)[C@H](O)[C@@H](O)[C@@H]1O [Dp-3G, delphinidin-3-glucoside] | – |
